Measured values taken from article PMC6010916, “Safety and pharmacokinetics of veliparib extended‐release in patients with advanced solid tumors: a phase I study” (Cancer Medicine, 2018).

Columns and labels:
[1] = tested on: ovarian and breast carcinoma; assay: Objective tumor response (RECIST version 1.1); format: in vivo, human
Protocol: (§1) Adverse event (AE) severity was assessed according to the National Cancer Institute Common Terminology Criteria for Adverse Events (NCI CTCAE) version 4.0. Tumor evaluations were performed at screening, every 8 weeks after the first administration of study drug, and at the final visit using radiographic measurements from computed tomography or magnetic resonance imaging. Objective tumor responses were evaluated using RECIST version 1.1 criteria. Patients who received one or more doses of veliparib were included in the PK and safety analyses, as well as for evaluation of time to disease progression (TTP). Patients with one or more measurable lesion at baseline were included in the analysis of objective responses.

[2] = tested on: non-small-cell lung cancer; triple-negative breast cancer; design: method as in earlier work; settings: combined with carboplatin and paclitaxel; preliminary results; cited from earlier work
[3] = cited from earlier work
[4] = Safety: treatment-emergent adverse events (NCI CTCAE version 4.0); format: in vivo, human
Protocol: as §1

[5] = tested on: advanced solid tumors (ovarian, breast carcinoma); assay: Time to disease progression (TTP); format: in vivo, human
Protocol: as §1

[6] = cited from earlier work; remark: listed apart in the source
[7] = 16 evaluable patients with breast carcinoma (all BRCA mutation carriers)
[8] = 42 evaluable breast and ovarian carcinoma patients with deleterious BRCA mutations
[9] = 44 evaluable patients with ovarian carcinoma
[10] = Deleterious BRCA mutation, Breast (n = 16)
[11] = Deleterious BRCA mutation, Ovarian (n = 26)
[12] = Deleterious BRCA mutation, Overall (N = 42)
[13] = All cycles, All patients (N = 71)
[14] = All cycles, Part 1, extension (n = 24)
[15] = Cycle 1, Part 1, extension (n = 24)

## C[C@]1(c2nc3c(C(N)=O)cccc3[nH]2)CCCN1 [veliparib]
[1]; [7]
  confirmed partial responses: 25.0%
  partial response (confirmed and unconfirmed): 62.5%
[1]; 16 patients with breast carcinoma and deleterious BRCA mutations
  confirmed partial responses: 25.0%
[1]; 26 patients with ovarian carcinoma and deleterious BRCA mutations
  confirmed partial responses: 11.5%
[1]; [8]
  confirmed partial responses: 16.7%
  partial response (confirmed and unconfirmed): 40.5%
[1]; [9]
  confirmed partial responses: 11.4%
  partial response (confirmed and unconfirmed): 27.3%
[1]; 60 evaluable patients
  confirmed overall ORR: 15%
  overall (confirmed and unconfirmed) ORR: 36.7%
[1]; Breast (n = 16)
  CR, confirmed: 0 n (%)
  ORR (CR + PR), confirmed: 4 (25.0)— n/N (%) (95% CI)
  PR, confirmed: 4 (25.0) n (%)
[1]; [10]
  CR, confirmed: 0 n (%)
  ORR (CR + PR), confirmed: 4 (25.0) n/N (%)
  PR, confirmed: 4 (25.0) n (%)
[1]; [11]
  CR, confirmed: 0 n (%)
  ORR (CR + PR), confirmed: 3 (11.5) n/N (%)
  PR, confirmed: 3 (11.5) n (%)
[1]; [12]
  CR, confirmed: 0 n (%)
  PR, confirmed: 7 (16.7) n (%)
[1]; Ovarian (n = 44)
  CR, confirmed: 0 n (%)
  PR, confirmed: 5 (11.4) n (%)
[1]; Ovarian (n = 44), measurable lesion at baseline
  ORR (CR + PR), confirmed: 5 (11.4)— n/N (%) (95% CI)
[1]; Overall (N = 60)
  CR, confirmed: 0 n (%)
  PR, confirmed: 9 (15.0) n (%)
[1]; nine patients with unknown BRCA status and measurable disease, all ovarian carcinoma
  partial response (two confirmed, two unconfirmed): 44.4%
[1]; ovarian carcinoma patients with no BRCA mutation
  objective responses: No confirmed and one unconfirmed objective responses
[2]
  primary endpoints (overall survival or complete pathologic response): did not meet their primary endpoints
[3]
  absorption: rapid absorption
  elimination: predominant elimination through urinary excretion of the unchanged drug
  oral bioavailability: high oral bioavailability
[4]; [13]
  Any SAE: 20 (28.2) n (%)
  SAE leading to discontinuation: 8 (11.3) n (%)
  SAE leading to dose interruption: 14 (19.7) n (%)
  SAE leading to dose reduction: 1 (1.4) n (%)
  TEAE: Any AE: 70 (98.6) n (%)
  TEAE: At least possibly related to study drug: 60 (84.5) n (%)
  TEAE: NCI CTCAE grade 3 or 4: 28 (39.4) n (%)
[4]; [14]
  Any SAE: 5 (20.8) n (%)
  SAE leading to discontinuation: 3 (12.5) n (%)
  SAE leading to dose interruption: 4 (16.7) n (%)
  SAE leading to dose reduction: 0 n (%)
  TEAE: Abdominal pain: 3 (12.5) n (%)
  TEAE: Anemia: 3 (12.5) n (%)
  TEAE: Any AE: 23 (95.8) n (%)
  TEAE: At least possibly related to study drug: 17 (70.8) n (%)
  TEAE: Constipation: 5 (20.8) n (%)
  TEAE: Decreased appetite: 1 (4.2) n (%)
  TEAE: Diarrhea: 5 (20.8) n (%)
  TEAE: Fatigue: 7 (29.2) n (%)
  TEAE: NCI CTCAE grade 3 or 4: 7 (29.2) n (%)
  TEAE: Nausea, Grade 1: 11 (45.8) n (%)
  TEAE: Nausea, Grade 2: 3 (12.5) n (%)
  TEAE: Nausea, Grade 3: 0 n (%)
  TEAE: Urinary tract infection: 7 (29.2) n (%)
  TEAE: Vomiting: 11 (45.8) n (%)
  TEAE: Vomiting, Grade 1: 11 (45.8) n (%)
  TEAE: Vomiting, Grade 2: 0 n (%)
  TEAE: Vomiting, Grade 3: 0 n (%)
[4]; All cycles, Part 2 (n = 35)
  Any SAE: 11 (31.4) n (%)
  SAE leading to discontinuation: 4 (11.4) n (%)
  SAE leading to dose interruption: 6 (17.1) n (%)
  SAE leading to dose reduction: 1 (2.9) n (%)
  TEAE: Abdominal pain: 7 (20.0) n (%)
  TEAE: Anemia: 10 (28.6) n (%)
  TEAE: Any AE: 35 (100) n (%)
  TEAE: At least possibly related to study drug: 33 (94.3) n (%)
  TEAE: Constipation: 14 (40.0) n (%)
  TEAE: Decreased appetite: 11 (31.4) n (%)
  TEAE: Diarrhea: 10 (28.6) n (%)
  TEAE: Fatigue: 14 (40.0) n (%)
  TEAE: NCI CTCAE grade 3 or 4: 17 (48.6) n (%)
  TEAE: Nausea: 31 (88.6) n (%)
  TEAE: Nausea, Grade 1: 24 (68.6) n (%)
  TEAE: Nausea, Grade 2: 5 (14.3) n (%)
  TEAE: Nausea, Grade 3: 2 (5.7) n (%)
  TEAE: Urinary tract infection: 5 (14.3) n (%)
  TEAE: Vomiting: 17 (48.6) n (%)
  TEAE: Vomiting, Grade 1: 13 (37.1) n (%)
  TEAE: Vomiting, Grade 2: 3 (8.6) n (%)
  TEAE: Vomiting, Grade 3: 1 (2.9) n (%)
[4]; All cycles, Part 3 (n = 12)
  Any SAE: 4 (33.3) n (%)
  SAE leading to discontinuation: 1 (8.3) n (%)
  SAE leading to dose interruption: 4 (33.3) n (%)
  SAE leading to dose reduction: 0 n (%)
  TEAE: Abdominal pain: 4 (33.3) n (%)
  TEAE: Anemia: 2 (16.7) n (%)
  TEAE: Any AE: 12 (100) n (%)
  TEAE: At least possibly related to study drug: 10 (83.3) n (%)
  TEAE: Constipation: 4 (33.3) n (%)
  TEAE: Decreased appetite: 2 (16.7) n (%)
  TEAE: Diarrhea: 6 (50.0) n (%)
  TEAE: Fatigue: 2 (16.7) n (%)
  TEAE: NCI CTCAE grade 3 or 4: 4 (33.3) n (%)
  TEAE: Nausea: 9 (75.0) n (%)
  TEAE: Nausea, Grade 1: 6 (50.0) n (%)
  TEAE: Nausea, Grade 2: 2 (16.7) n (%)
  TEAE: Nausea, Grade 3: 1 (8.3) n (%)
  TEAE: Urinary tract infection: 3 (25.0) n (%)
  TEAE: Vomiting: 7 (58.3) n (%)
  TEAE: Vomiting, Grade 1: 4 (33.3) n (%)
  TEAE: Vomiting, Grade 2: 2 (16.7) n (%)
  TEAE: Vomiting, Grade 3: 1 (8.3) n (%)
[4]; Cycle 1, All patients (N = 71)
  Any SAE: 10 (14.1) n (%)
  SAE leading to discontinuation: 4 (5.6) n (%)
  SAE leading to dose interruption: 6 (8.5) n (%)
  SAE leading to dose reduction: 1 (1.4) n (%)
  TEAE: Any AE: 67 (94.4) n (%)
  TEAE: At least possibly related to study drug: 50 (70.4) n (%)
  TEAE: NCI CTCAE grade 3 or 4: 13 (18.3) n (%)
[4]; [15]
  Any SAE: 4 (16.7) n (%)
  SAE leading to discontinuation: 3 (12.5) n (%)
  SAE leading to dose interruption: 2 (8.3) n (%)
  SAE leading to dose reduction: 0 n (%)
  TEAE: Any AE: 23 (95.8) n (%)
  TEAE: At least possibly related to study drug: 14 (58.3) n (%)
  TEAE: NCI CTCAE grade 3 or 4: 4 (16.7) n (%)
[4]; Cycle 1, Part 2 (n = 35)
  Any SAE: 5 (14.3) n (%)
  SAE leading to discontinuation: 1 (2.9) n (%)
  SAE leading to dose interruption: 3 (8.6) n (%)
  SAE leading to dose reduction: 1 (2.9) n (%)
  TEAE: Any AE: 34 (97.1) n (%)
  TEAE: At least possibly related to study drug: 29 (82.9) n (%)
  TEAE: NCI CTCAE grade 3 or 4: 8 (22.9) n (%)
[4]; Cycle 1, Part 3 (n = 12)
  Any SAE: 1 (8.3) n (%)
  SAE leading to discontinuation: 0 n (%)
  SAE leading to dose interruption: 1 (8.3) n (%)
  SAE leading to dose reduction: 0 n (%)
  TEAE: Any AE: 10 (83.3) n (%)
  TEAE: At least possibly related to study drug: 7 (58.3) n (%)
  TEAE: NCI CTCAE grade 3 or 4: 1 (8.3) n (%)
[4]; Part 1, PK BA portion (n = 24)
  Any SAE: 2 (8.3) n (%)
  SAE leading to discontinuation: 0 n (%)
  SAE leading to dose interruption: 1 (4.2) n (%)
  SAE leading to dose reduction: 0 n (%)
  TEAE: Any AE: 17 (70.8) n (%)
  TEAE: At least possibly related to study drug: 7 (29.2) n (%)
  TEAE: NCI CTCAE grade 3 or 4: 2 (8.3) n (%)
[4]; Part 1, PK phase (n = 24)
  TEAE: Abdominal pain: 3 (12.5) n (%)
  TEAE: Anemia: 1 (4.2) n (%)
  TEAE: Constipation: 0 n (%)
  TEAE: Decreased appetite: 1 (4.2) n (%)
  TEAE: Diarrhea: 2 (8.3) n (%)
  TEAE: Fatigue: 0 n (%)
  TEAE: Nausea: 4 (16.7) n (%)
  TEAE: Nausea, Grade 1: 4 (16.7) n (%)
  TEAE: Nausea, Grade 2: 0 n (%)
  TEAE: Nausea, Grade 3: 0 n (%)
  TEAE: Urinary tract infection: 0 n (%)
  TEAE: Vomiting: 1 (4.2) n (%)
  TEAE: Vomiting, Grade 1: 1 (4.2) n (%)
  TEAE: Vomiting, Grade 2: 0 n (%)
  TEAE: Vomiting, Grade 3: 0 n (%)
[4]; Part 1 extension/Part 2/Part 3
  grade 3 or 4 treatment-related anemia, patients: 0/3/0
  grade 3 or 4 treatment-related nausea, patients: 0/2/1
  grade 3 or 4 treatment-related thrombocytopenia, patients: 2/3/0
[4]; Total (N = 71)
  TEAE: Abdominal pain: 17 (23.9) n (%)
  TEAE: Constipation: 23 (32.4) n (%)
  TEAE: Decreased appetite: 15 (21.1) n (%)
  TEAE: Diarrhea: 23 (32.4) n (%)
  TEAE: Fatigue: 23 (32.4) n (%)
  TEAE: Nausea: 56 (78.9) n (%)
  TEAE: Nausea, Grade 1: 45 (63.4) n (%)
  TEAE: Nausea, Grade 2: 10 (14.1) n (%)
  TEAE: Nausea, Grade 3: 3 (4.2) n (%)
  TEAE: Urinary tract infection: 15 (21.1) n (%)
  TEAE: Vomiting: 36 (50.7) n (%)
  TEAE: Vomiting, Grade 1: 29 (40.8) n (%)
  TEAE: Vomiting, Grade 2: 5 (7.0) n (%)
  TEAE: Vomiting, Grade 3: 2 (2.8) n (%)
[4]; all cycles, 71 patients
  patients who experienced one or more TEAE: 98.6%
  patients with Grade 3 or 4 TEAEs: 39.4%
[4]; cycle 1, 71 patients
  patients who experienced one or more TEAE: 94.4%
  patients with Grade 3 or 4 TEAEs: 18.3%
[4]; overall
  grade 3 or 4 treatment-related anemia: 4.2%
  grade 3 or 4 treatment-related nausea: 4.2%
  grade 3 or 4 treatment-related thrombocytopenia: 7.0%
[4]; overall, 71 patients
  TEAE constipation, frequency: 32.4%
  TEAE diarrhea, frequency: 32.4%
  TEAE fatigue, frequency: 32.4%
  TEAE nausea, frequency: 78.9%
  TEAE vomiting, frequency: 50.7%
[5]; breast carcinoma (n = 17)
  6-month TTP rate: 53.5%
[5]; deleterious BRCA mutations, breast carcinoma
  6-month TTP rate: 53.5%
[5]; deleterious BRCA mutations, ovarian carcinoma
  6-month TTP rate: 35.7%
[5]; ovarian carcinoma (n = 53)
  6-month TTP rate: 31.8%
[5]; overall (N = 71)
  6-month TTP rate (had not progressed at 6 months): 38.1%
[5]; overall population (N = 71)
  median TTP: 149 days
[5]; patients with deleterious BRCA mutations
  6-month TTP rate: 43.0%
[5]; patients without BRCA mutations
  6-month TTP rate: 22.9%
[5]; unknown BRCA mutation status
  6-month TTP rate: 27.8%
[6]; single agent, phase I study
  RP2D: 400 mg twice-daily (BID)
[6]; single-agent therapy, phase I and II trials
  patients experiencing grade 3 or 4 neutropenia or thrombocytopenia: 2%
[6]; single-agent therapy
  patients with dose modifications, predominantly for nausea and vomiting: 78%
